One test relates to Calu-1 cells. As to the kind of experiment: Anti-proliferation (viability) of NSCLC Calu-1 cells, 3 days (Table 7, FIG. 2B). In kind it is cell-based. Conditions: Homo sapiens, 72 h; Calu-1 cells, 3 days, 10-point serial dilution; read-out: GI IC50 in Calu-1. An outline of the steps:
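Cells were exposed to heterobifunctional compounds across a 10-point serial dilution, for 3 days with Calu-1 and 6 days with T47D. A negative control was included that keeps the DDB1 ligand and linker but carries a modified warhead that impairs CDK4 binding.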

Another test deals with MCF7 cells. As to the kind of experiment: Anti-proliferation (viability) of MCF7 cells (Table 7, FIG. 2B). In kind it is cell-based. Particulars: Homo sapiens, MCF7, MCF7 cells, 3-6 days, 10-point serial dilution; read-out: GI IC50 in MCF-7.

The IC50 is the midpoint of a concentration-inhibition curve. With `CC(=O)c1c(C)c2cnc(Nc3ccc(N4CCC(N5CCC(C(=O)NC6CC(Nc7nc(NC(C)C)ccc7C(=O)Nc7ccc(N(C)C)nn7)C6)C5)CC4)cn3)nc2n(C2CCCC2)c1=O` (stereo not drawn) [CPD-460, 2-((3-(1-(1-(6-((6-acetyl-8-cyclopentyl-5-methyl-7-oxo-7,8-dihydropyrido[2,3-d]pyrimidin-2-yl)amino)pyridin-3-yl)piperidin-4-yl)pyrrolidine-3-carboxamido)cyclobutyl)amino)-N-(6-(dimethylamino)pyridazin-3-yl)-6-(isopropylamino)nicotinamide], the IC50 was not above 10 nM in the test with Calu-1 cells and more than 100 nM in the test on MCF7 cells.
In the same order, the values of `CC(=O)c1c(C)c2cnc(Nc3ccc(N4CCN(C5CCN(C(=O)C6(F)CCC(Nc7nc(NC(C)C)ccc7C(=O)Nc7ccc(N(C)C)nn7)CC6)C5)CC4)cn3)nc2n(C2CCCC2)c1=O` (stereo not drawn) [CPD-572, 2-((4-(3-(4-(6-((6-acetyl-8-cyclopentyl-5-methyl-7-oxo-7,8-dihydropyrido[2,3-d]pyrimidin-2-yl)amino)pyridin-3-yl)piperazin-1-yl)pyrrolidine-1-carbonyl)-4-fluorocyclohexyl)amino)-N-(6-(dimethylamino)pyridazin-3-yl)-6-(isopropylamino)nicotinamide] are not above 10 nM and 50 to 100 nM.
In the same order, the values of `[2H]C([2H])([2H])Nc1ccc(C(=O)Nc2cc(C)on2)c(NC2CC(CNC(=O)CN3CCN(c4ccc(Nc5ncc6c(C)c(C(C)=O)c(=O)n(C7CCCC7)c6n5)nc4)CC3)C2)n1` (stereo not drawn) [CPD-283, 2-((3-((2-(4-(6-((6-acetyl-8-cyclopentyl-5-methyl-7-oxo-7,8-dihydropyrido[2,3-d]pyrimidin-2-yl)amino)pyridin-3-yl)piperazin-1-yl)acetamido)methyl)cyclobutyl)amino)-6-((methyl-d3)amino)-N-(5-methylisoxazol-3-yl)nicotinamide] are not above 10 nM and 50 to 100 nM.
For the molecule `CC(C)Nc1ccc(C(=O)Nc2ccc(N(C)C)nn2)c(N[C@H]2CC[C@H](C(=O)N3CCC(N4CCN(c5ccc(Nc6ncc7cc(C(F)F)c(=O)n(C8CCCC8)c7n6)nc5)CC4)C3)CC2)n1` (stereo partly drawn) [CPD-559, 2-((trans-4-(3-(4-(6-((8-cyclopentyl-6-(difluoromethyl)-7-oxo-7,8-dihydropyrido[2,3-d]pyrimidin-2-yl)amino)pyridin-3-yl)piperazin-1-yl)pyrrolidine-1-carbonyl)cyclohexyl)amino)-N-(6-(dimethylamino)pyridazin-3-yl)-6-(isopropylamino)nicotinamide], the values for the IC50 in the test on Calu-1 cells and with MCF7 cells were 10 to 50 nM and more than 100 nM, respectively.
As to `CC(=O)c1c(C)c2cnc(Nc3ccc(N4CC5(CN(CC(=O)NC6CC7(C6)CC(Nc6nc(NC(C)C)ccc6C(=O)Nc6ccc(N(C)C)nn6)C7)C5)C4)cn3)nc2n(C2CCCC2)c1=O` (stereo not drawn) [CPD-467, 2-((6-(2-(6-(6-((6-acetyl-8-cyclopentyl-5-methyl-7-oxo-7,8-dihydropyrido[2,3-d]pyrimidin-2-yl)amino)pyridin-3-yl)-2,6-diazaspiro[3.3]heptan-2-yl)acetamido)spiro[3.3]heptan-2-yl)amino)-N-(6-(dimethylamino)pyridazin-3-yl)-6-(isopropylamino)nicotinamide], the IC50 with Calu-1 cells is not above 10 nM; in the test on MCF7 cells, more than 100 nM.
As to `[2H]C([2H])([2H])Nc1ccc(C(=O)Nc2ccc(N(C)C)nn2)c(NC2CC(C(=O)N3CCC(N4CCN(c5ccc(Nc6ncc7c(C)c(C(C)=O)c(=O)n(C8CCCC8)c7n6)nc5)CC4)C3)C2)n1` (stereo not drawn) [CPD-471, 2-((3-(3-(4-(6-((6-acetyl-8-cyclopentyl-5-methyl-7-oxo-7,8-dihydropyrido[2,3-d]pyrimidin-2-yl)amino)pyridin-3-yl)piperazin-1-yl)pyrrolidine-1-carbonyl)cyclobutyl)amino)-N-(6-(dimethylamino)pyridazin-3-yl)-6-((methyl-d3)amino)nicotinamide], the figures for the IC50 with Calu-1 cells and in the test with MCF7 cells were not above 10 nM and less than 50 nM, respectively.
In the same order, the values of `[2H]C([2H])([2H])Nc1ccc(C(=O)Nc2cn3c(n2)CCC3)c(NC2CC3(C2)CN(C(=O)CC(N2CCN(c4ccc(Nc5ncc6c(C)c(C(C)=O)c(=O)n(C7CCCC7)c6n5)nc4)CC2)C(F)(F)F)C3)n1` (stereo not drawn) [CPD-567, 2-((2-(3-(4-(6-((6-acetyl-8-cyclopentyl-5-methyl-7-oxo-7,8-dihydropyrido[2,3-d]pyrimidin-2-yl)amino)pyridin-3-yl)piperazin-1-yl)-4,4,4-trifluorobutanoyl)-2-azaspiro[3.3]heptan-6-yl)amino)-N-(6,7-dihydro-5H-pyrrolo[1,2-a]imidazol-2-yl)-6-((methyl-d3)amino)nicotinamide] are not above 10 nM and 50 to 100 nM.
With `CC(=O)c1c(C)c2cnc(Nc3ccc(N4CCN(CC(=O)NC5CC6(C5)CC(Nc5cc(C)ccc5C(=O)Nc5cc(C)on5)C6)CC4)cn3)nc2n(C2CCCC2)c1=O` (stereo not drawn) [CPD-286, 2-((6-(2-(4-(6-((6-acetyl-8-cyclopentyl-5-methyl-7-oxo-7,8-dihydropyrido[2,3-d]pyrimidin-2-yl)amino)pyridin-3-yl)piperazin-1-yl)acetamido)spiro[3.3]heptan-2-yl)amino)-4-methyl-N-(5-methylisoxazol-3-yl)benzamide], the IC50 in the test on Calu-1 cells was not below 50 nM; in the test with MCF7 cells, more than 100 nM.
Turning to `[2H]C([2H])([2H])Nc1ccc(C(=O)Nc2ccc(N(C)C)nn2)c(NC2CCN(C(=O)N3CCC(N4CCN(c5ccc(Nc6ncc7c(C)c(C(C)=O)c(=O)n(C8CCCC8)c7n6)nc5)CC4)C3)CC2)n1` (stereo not drawn) [CPD-482, 2-((1-(3-(4-(6-((6-acetyl-8-cyclopentyl-5-methyl-7-oxo-7,8-dihydropyrido[2,3-d]pyrimidin-2-yl)amino)pyridin-3-yl)piperazin-1-yl)pyrrolidine-1-carbonyl)piperidin-4-yl)amino)-N-(6-(dimethylamino)pyridazin-3-yl)-6-((methyl-d3)amino)nicotinamide], the IC50 in the test on Calu-1 cells is not above 10 nM; with MCF7 cells, less than 50 nM.
In the same order, the values of `CC(=O)c1c(C)c2cnc(Nc3ccc(CN4CCN(CC(=O)N5CCC6(CCC(Nc7nc(NC(C)C)ccc7C(=O)Nc7cc(C)n(C)n7)C6)C5)CC4)cn3)nc2n(C2CCCC2)c1=O` (stereo not drawn) [CPD-547, 2-((2-(2-(4-((6-((6-acetyl-8-cyclopentyl-5-methyl-7-oxo-7,8-dihydropyrido[2,3-d]pyrimidin-2-yl)amino)pyridin-3-yl)methyl)piperazin-1-yl)acetyl)-2-azaspiro[4.4]nonan-7-yl)amino)-N-(1,5-dimethyl-1H-pyrazol-3-yl)-6-(isopropylamino)nicotinamide] are not above 10 nM and less than 50 nM.
In the same order, the values of `CC(=O)c1c(C)c2cnc(Nc3ccc(N4CCC(N(C)CC(=O)N5CCC(Nc6nc(NC(C)C)ccc6C(=O)Nc6cn(C)c(C7CC7)n6)CC5)CC4)cn3)nc2n(C2CCCC2)c1=O` [CPD-466, 2-((1-(N-(1-(6-((6-acetyl-8-cyclopentyl-5-methyl-7-oxo-7,8-dihydropyrido[2,3-d]pyrimidin-2-yl)amino)pyridin-3-yl)piperidin-4-yl)-N-methylglycyl)piperidin-4-yl)amino)-N-(2-cyclopropyl-1-methyl-1H-imidazol-4-yl)-6-(isopropylamino)nicotinamide] are not above 10 nM and 50 to 100 nM.
Consider `CC(=O)c1c(C)c2cnc(Nc3ccc(N4CCC(N5CCC(C(=O)NC6CCC(Nc7nc(NC(C)C)ccc7C(=O)Nc7ccc(N(C)C)nn7)CC6)C5)CC4)cn3)nc2n(C2CCCC2)c1=O` (stereo not drawn) [CPD-462, 2-((4-(1-(1-(6-((6-acetyl-8-cyclopentyl-5-menthyl-7-oxo-7,8-dihydropyrido[2,3-d]pyrimidin-2-yl)amino)pyridin-3-yl)piperidin-4-yl)pyrrolidine-3-carboxamido)cyclohexyl)amino)-N-(6-(dimethylamino)pyridazin-3-yl)-6-(isopropylamino)nicotinamide], for which the IC50 is 10 to 50 nM in the test with Calu-1 cells and more than 100 nM with MCF7 cells.
In the same order, the values of `CC(=O)c1c(C)c2cnc(Nc3ccc(N4CCN(C5CCN(C(=O)NC6CC7(C6)CC(Nc6nc(NC(C)C)ccc6C(=O)Nc6ccc(N(C)C)nn6)C7)C5)CC4)cn3)nc2n(C2CCCC2)c1=O` (stereo not drawn) [CPD-470, 2-((6-(3-(4-(6-((6-acetyl-8-cyclopentyl-5-methyl-7-oxo-7,8-dihydropyrido[2,3-d]pyrimidin-2-yl)amino)pyridin-3-yl)piperazin-1-yl)pyrrolidine-1-carboxamido)spiro[3.3]heptan-2-yl)amino)-N-(6-(dimethylamino)pyridazin-3-yl)-6-(isopropylamino)nicotinamide] are not above 10 nM and more than 100 nM.
`[2H]C([2H])([2H])Nc1ccc(C(=O)Nc2ccc(N(C)C)nn2)c(NC2CCN(C(=O)CN3CCN(Cc4ccc(Nc5ncc6c(C)c(C(C)=O)c(=O)n(C7CCCC7)c6n5)nc4)CC3)CC2)n1` [CPD-474, 2-((1-(2-(4-((6-((6-acetyl-8-cyclopentyl-5-methyl-7-oxo-7,8-dihydropyrido[2,3-d]pyrimidin-2-yl)amino)pyridin-3-yl)methyl)piperazin-1-yl)acetyl)piperidin-4-yl)amino)-N-(6-(dimethylamino)pyridazin-3-yl)-6-((methyl-d3)amino)nicotinamide]: the half-inhibitory concentration (IC50) is not above 10 nM in the test with Calu-1 cells and 50 to 100 nM with MCF7 cells.
For the molecule `CC(=O)c1c(C)c2cnc(Nc3ccc(N4CCN(C5CCN(C(=O)[C@H]6CC[C@H](Nc7nc(C(F)(F)F)ccc7C(=O)Nc7ccc(N(C)C)nn7)CC6)C5)CC4)cn3)nc2n(C2CCCC2)c1=O` (stereo partly drawn) [CPD-571, 2-((trans-4-(3-(4-(6-((6-acetyl-8-cyclopentyl-5-methyl-7-oxo-7,8-dihydropyrido[2,3-d]pyrimidin-2-yl)amino)pyridin-3-yl)piperazin-1-yl)pyrrolidine-1-carbonyl)cyclohexyl)amino)-N-(6-(dimethylamino)pyridazin-3-yl)-6-(trifluoromethyl)nicotinamide], the 50% inhibitory concentration (IC50) in the test on Calu-1 cells was not above 10 nM; in the test with MCF7 cells, less than 50 nM.

The values above are taken from patent US20260297081A1, “COMPOUNDS AND METHODS OF TREATING CANCERS” (Cullgen Inc., priority 2023, published 2026).
